Results taken from PubChem BioAssay AID1963837 (Molecular Pharmacology Branch, DTP, NCI, 2024).

Test system: 843126-344-R-J1-PDC complex spheroid viability
Assay: Anticancer human tumor 843126-344-R-J1-PDC patient-derived melanoma cell line growth inhibition [POLQ]
Details: for IC50: curve of first compound; for viability, T/C: stronger effect = lower value
Protocol: Multicellular complex tumor spheroid response to Polymerase (POL) inhibitors (novobiocin, ART-558, RP6685) in combination with a variety of drugs and investigational agents in selected tumor cell lines
The POL inhibitors (novobiocin, ART-558, and RP6685) were evaluated both individually and in combination with standard of care and investigational anticancer small molecules within a complex spheroid model of solid tumors. . Complex spheroids include a stromal component modeled by human endothelial cells (HUVEC) and fibroblasts modeled by human mesenchymal stem cells (MSCs). The concentration ranges selected for each drug and investigational agent were based upon clinically achievable concentrations if the clinical Cmax of the agent was known.
Compounds. The drugs and investigational agents: novobiocin (NSC847541), ART-558 (NSC835418), RP-6685 (NSC848927), peposertib (NSC802822), ceralasertib (NSC780249), elimusertib (NSC800525), camonsertib (NSC841442), AZD-1390 (NSC803789), olaparib (NSC753686), talazoparib (NSC767125), rucaparib (NSC756644), sotorasib (NSC818433), MRTX-1133 (NSC836407), SN-38 (NSC673596), topotecan (NSC609699), epotoside (NSC141540), doxorubicin (NSC123127), gemcitabine (NSC613327), 5-fluorouracil (NSC19893), paclitaxel (NSC125973), vemurafenib (NSC761431), MSA-2 (NSC828583), SN-011 (NSC837082), adavosertib (NSC754352), prexasertib (NSC758257), carboplatin (NSC241240) and oxaliplatin (NSC266046), were obtained from the National Cancer Institute (NCI) Developmental Therapeutics Program Chemical Repository (21). The FDA-approved anticancer drug set is available from the Developmental Therapeutics Program at https://dtp.cancer.gov/organization/dscb/obtaining/. […] The stock solutions were prepared in dimethyl sulfoxide (DMSO, Sigma-Aldrich, St. Louis, MO, cat. D2650), except for the platinum compounds which were prepared in saline (Quality Biological, Gaithersburg, MD, cat. 114-055-101), at 800-fold the tested concentration and stored at -70 degrees C prior to their use. All drugs and investigational agents were tested over a range starting from a high concentration at or near the clinical Cmax and decreasing in half-log increments. If the clinical Cmax for an agent had not been determined, the highest concentration tested was 10 microM, except for SN-38, which was tested at a high concentration of 1 microM.
Cell Culture. All cells were maintained in an incubator at 37 degrees C and 5% CO2 with 95% humidity. The PDC lines were cultured according to standard operating procedures established by the NCI PDMR (https://pdmr.cancer.gov). Table 3 of the manuscript, lists the cell lines along with the number of the three cell types plated to form the mct-spheroids and media for tumor cell growth. After thawing, all PDC lines, except 997537-175-T-J1-PDC and 415267-285-R-J2-PDC, were cultured in Matrigel-coated flasks prepared with a working solution of 1X Ham's F-12 nutrient mix, without supplementation (Thermo Fisher Scientific, cat. 11765054), 100 U/mL penicillin-streptomycin (Thermo Fisher Scientific, cat. 15140122), and 2.5% Matrigel (Corning Inc., Corning, NY, cat. 354248) for the first three passages. The two PDC lines 997537-175-T-J1-PDC and 415267-285-R-J2-PDC were cultured on uncoated flasks. The 857933-349-R-J2-PDC line was cultured in 6C/Colon 1B media containing advanced DMEM/F-12 (Thermo Fisher Scientific, cat. 12634028), 10 mM HEPES (Thermo Fisher Scientific, cat. 15630080), 1X GlutaMAX supplement (Thermo Fisher Scientific, cat. 35050061), 0.1 mg/mL primocin (InvivoGen, San Diego, CA, cat. ant-pm-2), 10% defined fetal bovine serum, heat inactivated (HyClone Laboratories Inc., Logan, UT, cat. SH30070.03HI), 50% L-WRN conditioned media (ATCC, cat. CRL-3276), 1.25 mM N-Acetyl-L-cysteine (Sigma-Aldrich, cat. A9165), 10 mM nicotinamide (Sigma-Aldrich, cat. N0636), 1X B-27 supplement (Thermo Fisher Scientific, cat. 17504044), 1X N-2 supplement (Thermo Fisher Scientific, cat. […]
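For viability, T/C in this document: spheroids exposed to drugs for seven days before readout.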

SMILES: CC1COCCN1c1cc(-c2ccnn2C)c2ccnc(-c3ccn[nH]3)c2n1 (configuration not stated) + COC1C(OC(N)=O)C(O)C(Oc2ccc3c(O)c(NC(=O)c4ccc(O)c(CC=C(C)C)c4)c(=O)oc3c2C)OC1(C)C
- IC50 (second compound 0.0316 µM): 1040 nM
- IC50 (second compound 0.1 µM): 875 nM
- IC50 (second compound 0.316 µM): 784 nM
- IC50 (second compound 1 µM): 1270 nM
- IC50 (second compound 3.16 µM): 918 nM
- IC50 (second compound 10 µM): 1100 nM
- viability, T/C (second compound 0.0316 µM, first compound 0.0316 µM): 98.7%
- viability, T/C (second compound 0.0316 µM, first compound 0.1 µM): 69.8%
- viability, T/C (second compound 0.0316 µM, first compound 0.316 µM): 66.3%
- viability, T/C (second compound 0.0316 µM, first compound 1 µM): 54.2%
- viability, T/C (second compound 0.0316 µM, first compound 3.16 µM): 35.5%
- viability, T/C (second compound 0.0316 µM, first compound 10 µM): 34.2%
- viability, T/C (second compound 0.1 µM, first compound 0.0316 µM): 81.1%
- viability, T/C (second compound 0.1 µM, first compound 0.1 µM): 76.5%
- viability, T/C (second compound 0.1 µM, first compound 0.316 µM): 67.1%
- viability, T/C (second compound 0.1 µM, first compound 1 µM): 47.2%
- viability, T/C (second compound 0.1 µM, first compound 3.16 µM): 33.4%
- viability, T/C (second compound 0.1 µM, first compound 10 µM): 26.4%
- viability, T/C (second compound 0.316 µM, first compound 0.0316 µM): 92.4%
- viability, T/C (second compound 0.316 µM, first compound 0.1 µM): 73.7%
- viability, T/C (second compound 0.316 µM, first compound 0.316 µM): 60.4%
- viability, T/C (second compound 0.316 µM, first compound 1 µM): 46.2%
- viability, T/C (second compound 0.316 µM, first compound 3.16 µM): 38.1%
- viability, T/C (second compound 0.316 µM, first compound 10 µM): 23.7%
- viability, T/C (second compound 1 µM, first compound 0.0316 µM): 65.7%
- viability, T/C (second compound 1 µM, first compound 0.1 µM): 77.5%
- viability, T/C (second compound 1 µM, first compound 0.316 µM): 71.3%
- viability, T/C (second compound 1 µM, first compound 1 µM): 53.5%
- viability, T/C (second compound 1 µM, first compound 3.16 µM): 36.3%
- viability, T/C (second compound 1 µM, first compound 10 µM): 32%
- viability, T/C (second compound 3.16 µM, first compound 0.0316 µM): 73.3%
- viability, T/C (second compound 3.16 µM, first compound 0.1 µM): 83%
- viability, T/C (second compound 3.16 µM, first compound 0.316 µM): 58.5%
- viability, T/C (second compound 3.16 µM, first compound 1 µM): 45.9%
- viability, T/C (second compound 3.16 µM, first compound 3.16 µM): 42.1%
- viability, T/C (second compound 3.16 µM, first compound 10 µM): 25%
- viability, T/C (second compound 10 µM, first compound 0.0316 µM): 73.3%
- viability, T/C (second compound 10 µM, first compound 0.1 µM): 77.5%
- viability, T/C (second compound 10 µM, first compound 0.316 µM): 61.5%
- viability, T/C (second compound 10 µM, first compound 1 µM): 46.1%
- viability, T/C (second compound 10 µM, first compound 3.16 µM): 42.9%
- viability, T/C (second compound 10 µM, first compound 10 µM): 24.3%
